Like-named read-outs stand apart in the source and are kept apart here.
Columns and labels:
[1] = Solubility (Sol., Table 1); format: physicochemical
[2] = tested on: Escherichia coli (ATCC 25922); assay: Minimum inhibitory concentration (MIC) assay, Example 33; format: cell-based; conditions: Escherichia coli
Procedure, shortened: (§1)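 Broth microdilution per CLSI guidelines in CAMHB, with 2-fold serial compound dilutions. Inoculum was set to a 0.5 McFarland standard, diluted 1:100 to twice the test density, then mixed 1:2 with drug. Plates were incubated at 35° C and the MIC read per CLSI.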

[3] = tested on: Pseudomonas aeruginosa (ATCC 27853); assay: as above; format: cell-based; conditions: Pseudomonas aeruginosa
Procedure, shortened: as §1

Aspergillus niger = assay: Extended time kill study, Example 34 (0 to 24 h); format: cell-based
Experimental: (§2) Time kill studies. Strain suspensions were prepared as described above for the MIC test, and strain suspensions and compound solutions were mixed in the same volume. Samples were removed at specified times including 0 min, 30 sec, 1 min and 5 mins, were diluted in the test medium and streaked on agar. Colonies were counted after 24 to 48 hrs of incubation.
(§3) The time kill studies of Example 33 were extended for five compounds (Nex-59, Nex-60, Nex-61, Nex-62, and Nex-88) using the same methods at longer time periods and at higher multiples of MIC. Nex-88 is a code number for DDAIP.HCl from a different supplier.

Candida albicans = assay: Extended time kill study, Example 34 (0 to 24 h); format: cell-based
Experimental: as §2, §3

Pseudomonas aeruginosa = assay: Extended time kill study, Example 34 (0 to 24 h); format: cell-based
Experimental: as §2, §3

`CCCCCCCCCCCCOC(=O)C(C)NCCO.Cl` (stereo not shown) [Nex-61, Dodecyl 2-((2-hydroxyethyl)amino)propanoate hydrochloride] showed a Sol. [1] of 40%, an MIC ([2]; ATCC25922, Table 19 summary of Example 33 and Example 35, read-out: MIC) of 780 µg/mL and an MIC ([2]; ATCC25922, n = 1, read-out: MIC E. coli) of 780 µg/mL. It also gave an MIC ([2]; ATCC25922, n = 2, read-out: MIC E. coli) of 1560 µg/mL, an MIC ([3]; ATCC27853, Table 19 summary, read-out: MIC) of 6250 µg/mL and an MIC ([3]; ATCC27853, n = 1, read-out: MIC P. aeruginosa) of 6250 µg/mL. The MIC ([3]; ATCC27853, n = 2, read-out: MIC P. aeruginosa) was 6250 µg/mL, the “Viable counts in Log10 CFU/mL” value (Aspergillus niger; 1 × MIC, 1 h) was 5.48 Log10 CFU/mL and the “Viable counts in Log10 CFU/mL” value (Aspergillus niger; 1 × MIC, 2 h) was 5.36 Log10 CFU/mL. For the same compound, the “Viable counts in Log10 CFU/mL” value (Aspergillus niger; 1 × MIC, 4 h) was 5.18 Log10 CFU/mL, the “Viable counts in Log10 CFU/mL” value (Aspergillus niger; 1 × MIC, 6 h) was 4.95 Log10 CFU/mL and the “Viable counts in Log10 CFU/mL” value (Aspergillus niger; 1 × MIC, 24 h) was 4.48 Log10 CFU/mL. For the same compound, the “Viable counts in Log10 CFU/mL” value (Aspergillus niger; 1 × MIC, 0 h) was 5.28 Log10 CFU/mL, the “Viable counts in Log10 CFU/mL” value (Aspergillus niger; 2 × MIC, 1 h) was 5.52 Log10 CFU/mL and the “Viable counts in Log10 CFU/mL” value (Aspergillus niger; 2 × MIC, 2 h) was 5.57 Log10 CFU/mL. For the same compound, the “Viable counts in Log10 CFU/mL” value (Aspergillus niger; 2 × MIC, 4 h) was 4.48 Log10 CFU/mL, the “Viable counts in Log10 CFU/mL” value (Aspergillus niger; 2 × MIC, 6 h) was 4.90 Log10 CFU/mL and the “Viable counts in Log10 CFU/mL” value (Aspergillus niger; 2 × MIC, 24 h) was 3 Log10 CFU/mL. The “Viable counts in Log10 CFU/mL” value (Aspergillus niger; 2 × MIC, 0 h) was 5.33 Log10 CFU/mL, the “Viable counts in Log10 CFU/mL” value (Aspergillus niger; 4 × MIC, 1 h) was 5.34 Log10 CFU/mL and the “Viable counts in Log10 CFU/mL” value (Aspergillus niger; 4 × MIC, 2 h) was 5.41 Log10 CFU/mL. The “Viable counts in Log10 CFU/mL” value (Aspergillus niger; 4 × MIC, 4 h) was 5.28 Log10 CFU/mL, the “Viable counts in Log10 CFU/mL” value (Aspergillus niger; 4 × MIC, 6 h) was 4.95 Log10 CFU/mL and the “Viable counts in Log10 CFU/mL” value (Aspergillus niger; 4 × MIC, 24 h) was <2 Log10 CFU/mL. For the same compound, the “Viable counts in Log10 CFU/mL” value (Aspergillus niger; 4 × MIC, 0 h) was 5.26 Log10 CFU/mL, the “Viable counts in Log10 CFU/mL” value (Candida albicans; 1 × MIC, 1 h) was 5.37 Log10 CFU/mL and the “Viable counts in Log10 CFU/mL” value (Candida albicans; 1 × MIC, 2 h) was 5.37 Log10 CFU/mL. For the same compound, the “Viable counts in Log10 CFU/mL” value (Candida albicans; 1 × MIC, 4 h) was 5.32 Log10 CFU/mL, the “Viable counts in Log10 CFU/mL” value (Candida albicans; 1 × MIC, 6 h) was 5.54 Log10 CFU/mL and the “Viable counts in Log10 CFU/mL” value (Candida albicans; 1 × MIC, 24 h) was >6 Log10 CFU/mL. The “Viable counts in Log10 CFU/mL” value (Candida albicans; 1 × MIC, 0 h) was 5.43 Log10 CFU/mL, the “Viable counts in Log10 CFU/mL” value (Candida albicans; 2 × MIC, 1 h) was <3 Log10 CFU/mL and the “Viable counts in Log10 CFU/mL” value (Candida albicans; 2 × MIC, 2 h) was <3 Log10 CFU/mL. The “Viable counts in Log10 CFU/mL” value (Candida albicans; 2 × MIC, 4 h) was <2.70 Log10 CFU/mL, the “Viable counts in Log10 CFU/mL” value (Candida albicans; 2 × MIC, 6 h) was <2.70 Log10 CFU/mL and the “Viable counts in Log10 CFU/mL” value (Candida albicans; 2 × MIC, 24 h) was >6 Log10 CFU/mL. The “Viable counts in Log10 CFU/mL” value (Candida albicans; 2 × MIC, 0 h) was 5.48 Log10 CFU/mL, the “Viable counts in Log10 CFU/mL” value (Candida albicans; 4 × MIC, 1 h) was <3 Log10 CFU/mL and the “Viable counts in Log10 CFU/mL” value (Candida albicans; 4 × MIC, 2 h) was <3 Log10 CFU/mL. The “Viable counts in Log10 CFU/mL” value (Candida albicans; 4 × MIC, 4 h) was <2.70 Log10 CFU/mL, the “Viable counts in Log10 CFU/mL” value (Candida albicans; 4 × MIC, 6 h) was <2.70 Log10 CFU/mL and the “Viable counts in Log10 CFU/mL” value (Candida albicans; 4 × MIC, 24 h) was <1 Log10 CFU/mL. For the same compound, the “Viable counts in Log10 CFU/mL” value (Candida albicans; 4 × MIC, 0 h) was 5.39 Log10 CFU/mL, the “Viable counts, Pseudomonas aeruginosa time kill study” value (Pseudomonas aeruginosa; 1 × MIC, 1 h) was <1 Log10 CFU/mL and the “Viable counts, Pseudomonas aeruginosa time kill study” value (Pseudomonas aeruginosa; 1 × MIC, 2 h) was <1 Log10 CFU/mL. The “Viable counts, Pseudomonas aeruginosa time kill study” value (Pseudomonas aeruginosa; 1 × MIC, 4 h) was <1 Log10 CFU/mL, the “Viable counts, Pseudomonas aeruginosa time kill study” value (Pseudomonas aeruginosa; 1 × MIC, 6 h) was <1 Log10 CFU/mL and the “Viable counts, Pseudomonas aeruginosa time kill study” value (Pseudomonas aeruginosa; 1 × MIC, 24 h) was <1 Log10 CFU/mL. The “Viable counts, Pseudomonas aeruginosa time kill study” value (Pseudomonas aeruginosa; 1×MIC, time 0) was 5.28 Log10 CFU/mL, the “Viable counts, Pseudomonas aeruginosa time kill study” value (Pseudomonas aeruginosa; 2 × MIC, 1 h) was <1 Log10 CFU/mL and the “Viable counts, Pseudomonas aeruginosa time kill study” value (Pseudomonas aeruginosa; 2 × MIC, 2 h) was <1 Log10 CFU/mL. The “Viable counts, Pseudomonas aeruginosa time kill study” value (Pseudomonas aeruginosa; 2 × MIC, 4 h) was <1 Log10 CFU/mL, the “Viable counts, Pseudomonas aeruginosa time kill study” value (Pseudomonas aeruginosa; 2 × MIC, 6 h) was <1 Log10 CFU/mL and the “Viable counts, Pseudomonas aeruginosa time kill study” value (Pseudomonas aeruginosa; 2 × MIC, 24 h) was <1 Log10 CFU/mL. For the same compound, the “Viable counts, Pseudomonas aeruginosa time kill study” value (Pseudomonas aeruginosa; 2 × MIC, time 0) was 5.29 Log10 CFU/mL, the “Viable counts, Pseudomonas aeruginosa time kill study” value (Pseudomonas aeruginosa; 4 × MIC, 1 h) was <1 Log10 CFU/mL and the “Viable counts, Pseudomonas aeruginosa time kill study” value (Pseudomonas aeruginosa; 4 × MIC, 2 h) was <1 Log10 CFU/mL. The “Viable counts, Pseudomonas aeruginosa time kill study” value (Pseudomonas aeruginosa; 4 × MIC, 4 h) was <1 Log10 CFU/mL, the “Viable counts, Pseudomonas aeruginosa time kill study” value (Pseudomonas aeruginosa; 4 × MIC, 6 h) was <1 Log10 CFU/mL and the “Viable counts, Pseudomonas aeruginosa time kill study” value (Pseudomonas aeruginosa; 4 × MIC, 24 h) was <1 Log10 CFU/mL. The “Viable counts, Pseudomonas aeruginosa time kill study” value (Pseudomonas aeruginosa; 4 × MIC, time 0) was 5.26 Log10 CFU/mL.

Source: US20140357713A1, “ANTIMICROBIAL COMPOUNDS AND METHODS OF USE” (NexMed Holdings, Inc., priority 2012, published 2014)
